Test results published in patent publication US8912120B2, “Herbicidal compositions comprising 4-amino-3-chloro-5-fluoro-6-(4-chloro-2-fluoro-3-methoxyphenyl) pyridine-2-carboxylic acid or a derivative thereof and synthetic auxin herbicides” (Dow AgroSciences, LLC., priority 2012, dated 2014).
Counter-ions that a name gives are not always drawn.

Columns and labels:
ELEIN = test: Example III: postemergence foliar-applied herbicidal mixtures, weeds common to row crops such as corn and soybeans (greenhouse), ELEIN; type: in vivo, Eleusine indica (goosegrass); conditions: 17 DAA
Protocol: (§1) The plants were grown for 7-31 days (d) in a greenhouse with an approximate 15 hour (h) photoperiod which was maintained at about 23-29° C. during the day and 22-28° C. during the night.

SORHA = test: Example III: postemergence foliar-applied herbicidal mixtures, row crop weeds, SORHA; type: in vivo, Sorghum halepense (johnsongrass); conditions: 13 DAA; 7.5 gae/ha
Protocol: as §1

ISCRU = test: Example I: postemergence foliar-applied herbicidal mixtures, direct seeded rice, ISCRU; type: in vivo, Ischaemum rugosum (saramollagrass)
Protocol: (§6) The soil matrix was contained in plastic pots with a volume of 1 quart and a surface area of 83.6 square centimeters (cm^2). […] The plants were grown for 8-22 days in a greenhouse with an approximate 14 h photoperiod which was maintained at about 29° C. during the day and 26° C. during the night. Nutrients (Peters Excel® 15-5-15 5-Ca 2-Mg and iron chelate) were applied in the irrigation solution as needed and water was added on a regular basis. Supplemental lighting was provided with overhead metal halide 1000-Watt lamps as necessary. The plants were employed for testing when they reached the first through fourth true leaf stage.
(§7) Treatments consisted of the acid or esters of 4-amino-3-chloro-5-fluoro-6-(4-chloro-2-fluoro-3-methoxy-phenyl)pyridine-2-carboxylic acid (Compound A), each formulated as an SC (suspension concentrate), and various herbicidal components alone and in combination. Forms of compound A were applied on an acid equivalent basis.
(§8) For treatments comprised of formulated compounds, measured amounts of compounds were placed individually in 25 mL glass vials and diluted in a volume of 1.25% (v/v) Agri-Dex® crop oil concentrated to obtain 12× stock solutions. […] Application solutions were prepared by adding an appropriate amount of each stock solution (e.g., 1 mL) and diluted to the appropriate final concentrations with the addition of 10 mL of an aqueous mixture of 1.25% (v/v) crop oil concentrate so that the final spray solutions contained 1.25+/−0.05% (v/v) crop oil concentrate.
(§9) All stock solutions and applications solutions were visually inspected for compound compatibility prior to application. Spray solutions were applied to the plant material with an overhead Mandel track sprayer equipped with a 8002E nozzles calibrated to deliver 187 L/ha over an application area of 0.503 m^2 at a spray height of 18 to 20 inches (46 to 50 cm) above average plant canopy height. Control plants were sprayed in the same manner with the solvent blank.
(§10) The treated plants and control plants were placed in a greenhouse as described above and watered by sub-irrigation to prevent wash-off of the test compounds. After approximately 3 weeks, the condition of the test plants as compared with that of the untreated plants was determined visually and scored on a scale of 0 to 100 percent where 0 corresponds to no injury or growth inhibition and 100 corresponds to complete kill.
(§11) Colby's equation was used to determine the herbicidal effects expected from the mixtures (Colby, S. R. 1967. Calculation of the synergistic and antagonistic response of herbicide combinations. Weeds 15:20-22).
(§12) The following equation was used to calculate the expected activity of mixtures containing two active ingredients, A and B: Expected=A+B−(A×B/100)
(§13) A=observed efficacy of active ingredient A at the same concentration as used in the mixture.
(§14) B=observed efficacy of active ingredient B at the same concentration as used in the mixture.

ECHOR = test: Example II: in-water applied herbicidal mixtures, transplanted paddy rice, ECHOR; type: in vivo, Echinochloa oryzoides (early watergrass); conditions: Echinochloa oryzoides, read-out: Visual Weed Control (%) Obs
Protocol: (§2) The prepared mud was dispensed in 365 mL aliquots into 16-ounce (oz.) non-perforated plastic pots with a surface area of 86.59 square centimeters (cm^2) leaving a headspace of 3 centimeters (cm) in each pot Mud was allowed to dry overnight prior to planting or transplanting. Rice seeds were planted in Sun Gro MetroMix® 306 planting mixture, which typically has a pH of 6.0 to 6.8 and an organic matter content of about 30 percent, in plastic plug trays. Seedlings at the second or third leaf stage of growth were transplanted into 840 mL of mud contained in 32-oz. non-perforated plastic pots with a surface area of 86.59 cm^2 4 days prior to herbicide application. […] Nutrients were added as Osmocote® (19:6:12, N:P:K^+ minor nutrients) at 2 g per 16-oz. pot and 4 g per 32-oz. pot.
(§3) Applications were made by injecting with a pipetter appropriate amounts of the application solutions, individually and sequentially, into the aqueous layer of the paddy. Control plants were treated in the same manner with the solvent blank. Applications were made so that all treated plant material received the same concentrations of acetone and crop oil concentrate.

ECHCG [1] = test: Example I: postemergence foliar-applied herbicidal mixtures, direct seeded rice, ECHCG
Protocol: as §6, §7, §8, §9, §10, §11, §12, §13, §14

CYPIR [2] = test: Example II: in-water applied herbicidal mixtures, transplanted paddy rice, CYPIR; type: in vivo, Cyperus iria L. (flatsedge; conditions: 21 DAA; 560 gai/ha
AMARE = test: Example IV: postemergence foliar-applied herbicidal mixtures, weed control in cereal crops in the greenhouse, AMARE; type: in vivo, Amaranthus retroflexus (redroot pigweed); conditions: alone, 140 gai/ha, 20-22 days
Protocol: (§4) Seeds of the desired test plant species were planted in Sun Gro MetroMix 306 planting mixture, which typically has a pH of 6.0 to 6.8 and an organic matter content of about 30 percent, in plastic pots with a surface area of 103.2 square centimeters (cm^2). […] The plants were grown for 7-36 days in a greenhouse with an approximate 14 hour photoperiod which was maintained at about 18° C. during the day and 17° C. during the night.
(§5) Spray solutions of the second cereal herbicide and experimental compound mixtures were prepared by adding the stock solutions to the appropriate amount of dilution solution to form 12 mL spray solution with active ingredients in two- and three-way combinations.

DIGSA = test: Example I: postemergence foliar-applied herbicidal mixtures, direct seeded rice, DIGSA; conditions: 560 gai/ha
Protocol: as §6, §7, §8, §9, §10, §11, §12, §13, §14

CYPIR [3] = test: Example I: postemergence foliar-applied herbicidal mixtures, direct seeded rice, CYPIR; type: in vivo, Cyperus iria (rice flatsedge)
CYPES = test: Example I: postemergence foliar-applied herbicidal mixtures, direct seeded rice, CYPES; type: in vivo, Cyperus esculentus (yellow nutsedge)
Protocol: as §6, §7, §8, §9, §10, §11
The following equation was used to calculate the expected activity of mixtures containing two active ingredients, A and B: Expected=A+B−(A×B/100) […]

VIOTR = test: Example IV: postemergence foliar-applied herbicidal mixtures, cereal crops, VIOTR; type: in vivo, Viola tricolor (wild pansy); conditions: alone, 140 gai/ha, foliar, 20-22 days
Protocol: as §4, §5

SCPMA = test: Example II: in-water applied herbicidal mixtures, transplanted paddy rice, SCPMA; type: in vivo; conditions: 20 DAA; 560 gai/ha
Protocol: as §2, §3

POLCO = test: Example IV: postemergence foliar-applied herbicidal mixtures, cereal crops, POLCO; type: in vivo, Polygonum convolvulus (wild buckwheat); conditions: alone, 140 gai/ha, foliar, 20-22 days
Protocol: as §4, §5

FIMMI = test: Example II: in-water applied herbicidal mixtures, transplanted paddy rice, FIMMI; type: in vivo, Fimbristylis miliacea (globe fringerush); conditions: 22 DAA
Protocol: as §2, §3

CYPRO = test: Example II: in-water applied herbicidal mixtures, weed control in transplanted paddy rice (greenhouse), CYPRO; type: in vivo, Cyperus rotundus (purple nutsedge); conditions: 22 DAA
Protocol: as §2, §3

SCPJU = test: Example II: in-water applied herbicidal mixtures, transplanted paddy rice, SCPJU; type: in vivo, Schoenoplectus juncoides (Japanese bulrush); conditions: 22 DAA
Protocol: as §2, §3

ECHCG [4] = test: Example II: in-water applied herbicidal mixtures, transplanted paddy rice, ECHCG; type: in vivo, Echinochloa crus-galli (barnyardgrass); conditions: 22 DAA
Protocol: as §2, §3

LEFCH = test: Example II: in-water applied herbicidal mixtures, transplanted paddy rice, LEFCH; type: in vivo, Leptochloa chinensis (Chinese sprangletop); conditions: 22 DAA
Protocol: as §2, §3

**Q.** With `COc1c(Cl)ccc(-c2cc(N)c(Cl)c(C(=O)[O-])n2)c1F.[K+]` [Halauxifen K^+ Salt] as the molecule, how does the “Visual Weed Control (%) Obs” value (ELEIN; 3.75 gae/ha) read?
**A.** Its value is 30%.

**Q.** What about the “Visual Weed Control (%) Obs” value (ELEIN; 7.5 gae/ha) of the same molecule?
**A.** The value was 40%.

**Q.** And the “Visual Weed Control (%) Obs” value (ELEIN; 15 gae/ha)?
**A.** Its value is 50%.

**Q.** What about the “Visual Weed Control (%) Obs” value (SORHA) of the same molecule?
**A.** Its value is 0%.

**Q.** Which results are given for `O=C(O)c1c(Cl)ccc2cc(Cl)cnc12` [Quinclorac, 3,7-dichloro-8-quinolinecarboxylic acid]?
**A.** Visual Weed Control (%) - 21 DAA ISCRU Obs (ISCRU; 140 gai/ha): 0%; Visual Weed Control (%) - 21 DAA ISCRU Obs (ISCRU; 280 gai/ha): 0%; Visual Weed Control (%) - 21 DAA ISCRU Obs (ISCRU; 560 gai/ha): 0%; pest or weed control at 560 g/ha (ECHOR; 480 h, 20 DAA, 560 gai/ha): 20%; Visual Weed Control (%) - 21 DAA ECHCG Obs (ECHCG [1]; 70 gai/ha): 15%; Visual Weed Control (%) - 21 DAA ECHCG Obs (ECHCG [1]; 140 gai/ha): 30%; Visual Weed Control (%) - 21 DAA ECHCG Obs (ECHCG [1]; 280 gai/ha): 30%; Visual Weed Control (%) Obs (CYPIR [2]): 0%; AMARE Ob (observed value) (AMARE): 27%; Visual Weed Control (%) - 20 DAA DIGSA Obs (DIGSA): 8%; Visual Weed Control (%) - 21 DAA DIGSA Obs (DIGSA): 8%; Visual Weed Control (%) - 21 DAA CYPIR Obs (CYPIR [3]; 70 gai/ha): 0%; Visual Weed Control (%) - 21 DAA CYPIR Obs (CYPIR [3]; 140 gai/ha): 0%; Visual Weed Control (%) - 21 DAA CYPIR Obs (CYPIR [3]; 280 gai/ha): 0%; Visual Weed Control (%) - 21 DAA CYPES Obs (CYPES; 70 gai/ha): 0%; Visual Weed Control (%) - 21 DAA CYPES Obs (CYPES; 140 gai/ha): 0%; Visual Weed Control (%) - 21 DAA CYPES Obs (CYPES; 280 gai/ha): 0%; VIOTR Ob (observed value) (VIOTR): 0%; Visual Weed Control (%) Obs (SCPMA): 0%; POLCO Ob (observed value) (POLCO): 3%

**Q.** Which results are given for `O=C(O)COc1nc(Cl)c(Cl)cc1Cl` [Triclopyr Choline Salt, 2-hydroxy-N,N,N-trimethylethanaminium 2-((3,5,6-trichloropyridin-2-yl)oxy)acetate, reference compound]?
**A.** pest or weed control at 70 g/ha (ECHOR; 528 h, 22 DAA, 70 gae/ha): 10%; pest or weed control at 140 g/ha (ECHOR; 528 h, 22 DAA, 140 gae/ha): 15%; Visual Weed Control (%) Obs (FIMMI; 70 gae/ha): 15%; Visual Weed Control (%) Obs (FIMMI; 140 gae/ha): 80%; Visual Weed Control (%) Obs (CYPRO; 70 gae/ha): 0%; Visual Weed Control (%) Obs (CYPRO; 140 gae/ha): 0%; Visual Weed Control (%) Obs (SCPJU; 70 gae/ha): 15%; Visual Weed Control (%) Obs (SCPJU; 140 gae/ha): 50%; Visual Weed Control (%) Obs (ECHCG [4]; 70 gae/ha): 15%; Visual Weed Control (%) Obs (ECHCG [4]; 140 gae/ha): 20%; Visual Weed Control (%) Obs (LEFCH; 70 gae/ha): 0%; Visual Weed Control (%) Obs (LEFCH; 140 gae/ha): 0%
